In ChEMBL document CHEMBL4270599, “Synthesis of a 3'-C-ethynyl-β-d-ribofuranose purine nucleoside library: Discovery of C7-deazapurine analogs as potent antiproliferative nucleosides” (Eur J Med Chem, 2018):

How the values were obtained:
Assay type in all cases: functional
ACHN [1] = assay: Growth inhibition of human ACHN cells assessed as cell growth at 10^-8 M incubated for 48 hrs by sulforhodamine B assay relative to control; settings: read-out: Activity
K562 [2] = assay: Growth inhibition of human K562 cells assessed as cell growth at 10^-6 M incubated for 48 hrs by sulforhodamine B assay relative to control; settings: K562, 48 h, read-out: Activity
SR [3] = assay: Growth inhibition of human SR cells assessed as cell growth at 10^-6 M incubated for 48 hrs by sulforhodamine B assay relative to control; settings: read-out: Activity
SR [4] = assay: Growth inhibition of human SR cells assessed as cell growth at 10^-7 M incubated for 48 hrs by sulforhodamine B assay relative to control; settings: read-out: Activity
OVCAR-4 = assay: Growth inhibition of human OVCAR4 cells assessed as cell growth at 10^-7 M incubated for 48 hrs by sulforhodamine B assay relative to control; settings: OVCAR-4, 48 h, read-out: Activity
HCC 2998 = assay: Growth inhibition of human HCC2998 cells assessed as cell growth at 10^-8 M incubated for 48 hrs by sulforhodamine B assay relative to control; settings: HCC 2998, 48 h, read-out: Activity
RXF 393 = assay: Growth inhibition of human RXF393 cells assessed as cell growth at 10^-7 M incubated for 48 hrs by sulforhodamine B assay relative to control; settings: RXF 393, 48 h, read-out: Activity
MOLT-4 [5] = assay: Growth inhibition of human MOLT4 cells assessed as cell growth at 10^-7 M incubated for 48 hrs by sulforhodamine B assay relative to control; settings: MOLT-4, 48 h, read-out: Activity
K562 [6] = assay: Cytotoxicity against human K562 cells after 48 hrs by SRB assay; settings: K562, 48 h
ACHN [7] = assay: Growth inhibition of human ACHN cells assessed as cell growth at 10^-5 M incubated for 48 hrs by sulforhodamine B assay relative to control; settings: read-out: Activity
EKVX [8] = assay: Growth inhibition of human EKVX cells assessed as cell growth at 10^-8 M incubated for 48 hrs by sulforhodamine B assay relative to control; settings: read-out: Activity
K562 [9] = assay: Growth inhibition of human K562 cells assessed as cell growth at 10^-5 M incubated for 48 hrs by sulforhodamine B assay relative to control; settings: K562, 48 h, read-out: Activity
MOLT-4 [10] = assay: Cytotoxicity against human MOLT4 cells after 48 hrs by SRB assay; settings: MOLT-4, 48 h
SR [11] = assay: Growth inhibition of human SR cells assessed as cell growth at 10^-4 M incubated for 48 hrs by sulforhodamine B assay relative to control; settings: read-out: Activity
MDA-MB-231 = assay: Growth inhibition of human MDA-MB-231 cells assessed as cell growth at 10^-8 M incubated for 48 hrs by sulforhodamine B assay relative to control; settings: MDA-MB-231, 48 h, read-out: Activity
IGROV-1 = assay: Growth inhibition of human IGROV1 cells assessed as cell growth at 10^-7 M incubated for 48 hrs by sulforhodamine B assay relative to control; settings: IGROV-1, 48 h, read-out: Activity
DU-145 [12] = assay: Growth inhibition of human DU145 cells assessed as cell growth at 10^-8 M incubated for 48 hrs by sulforhodamine B assay relative to control; settings: DU-145, 48 h, read-out: Activity
BT-549 [13] = assay: Cytotoxicity against human BT549 cells after 48 hrs by SRB assay; settings: BT-549, 48 h
COLO 205 = assay: Cytotoxicity against human COLO205 cells after 48 hrs by SRB assay; settings: COLO 205, 48 h
NCI-H23 = assay: Growth inhibition of human NCI-H23 cells assessed as cell growth at 10^-7 M incubated for 48 hrs by sulforhodamine B assay relative to control; settings: NCI-H23, 48 h, read-out: Activity
Hs-578T = assay: Growth inhibition of human Hs 578T cells assessed as cell growth at 10^-8 M incubated for 48 hrs by sulforhodamine B assay relative to control; settings: read-out: Activity
DU-145 [14] = assay: Growth inhibition of human DU145 cells assessed as cell growth at 10^-6 M incubated for 48 hrs by sulforhodamine B assay relative to control; settings: DU-145, 48 h, read-out: Activity
MCF7 = assay: Growth inhibition of human MCF7 cells assessed as cell growth at 10^-6 M incubated for 48 hrs by sulforhodamine B assay relative to control; settings: MCF7, 48 h, read-out: Activity
UACC-62 = assay: Growth inhibition of human UACC62 cells assessed as cell growth at 10^-7 M incubated for 48 hrs by sulforhodamine B assay relative to control; settings: UACC-62, 48 h, read-out: Activity
EKVX [15] = assay: Growth inhibition of human EKVX cells assessed as cell growth at 10^-7 M incubated for 48 hrs by sulforhodamine B assay relative to control; settings: read-out: Activity
SF-268 = assay: Growth inhibition of human SF268 cells assessed as cell growth at 10^-7 M incubated for 48 hrs by sulforhodamine B assay relative to control; settings: SF-268, 48 h, read-out: Activity
ACHN [16] = assay: Growth inhibition of human ACHN cells assessed as cell growth at 10^-4 M incubated for 48 hrs by sulforhodamine B assay relative to control; settings: read-out: Activity
BT-549 [17] = assay: Growth inhibition of human BT549 cells assessed as cell growth at 10^-8 M incubated for 48 hrs by sulforhodamine B assay relative to control; settings: BT-549, 48 h, read-out: Activity
SK-MEL-28 = assay: Growth inhibition of human SK-MEL-28 cells assessed as cell growth at 10^-7 M incubated for 48 hrs by sulforhodamine B assay relative to control; settings: SK-MEL-28, 48 h, read-out: Activity
SW-620 = assay: Cytotoxicity against human SW620 cells after 48 hrs by SRB assay; settings: SW-620, 48 h
[18] = read-out: pLC50 (the source's name) (converted)
[19] = read-out: LC50 (the source's name)

SMILES: C#C[C@@]1(O)[C@@H](CO)O[C@@H](n2cc(Cl)c3c(N)ncnc32)[C@@H]1O
- growth at 0.01 µM (ACHN [1]): 95%
- growth at 1 µM (K562 [2]): 7%
- growth at 1 µM (SR [3]): 5 to 6%
- growth at 0.1 µM (SR [4]): 34 to 46%
- growth at 0.1 µM (OVCAR-4): 89 to 95%
- growth at 0.01 µM (HCC 2998): 92 to 99%
- growth at 0.1 µM (RXF 393): 105 to 110%
- growth at 0.1 µM (MOLT-4 [5]): 62 to 67%
- GI50 (K562 [6]; read-out: GI50): 78.1 to 126 nM
- TGI (K562 [6]; read-out: TGI): > 100000 nM
- CC50 (K562 [6]; [18]): > 100000 nM
- TGI (K562 [6]; read-out: pTGI): > 100000 nM
- growth at 10 µM (ACHN [7]): -30%
- growth at 0.01 µM (EKVX [8]): 83 to 89%
- growth at 10 µM (K562 [9]): 5 to 7%
- GI50 (MOLT-4 [10]; read-out: GI50): 161 to 181 nM
- CC50 (MOLT-4 [10]; [19]): > 100000 nM
- TGI (MOLT-4 [10]; read-out: TGI): 6970 to 100000 nM
- growth at 100 µM (SR [11]): 2 to 5%
- growth at 0.01 µM (MDA-MB-231): 88 to 100%
- growth at 0.1 µM (IGROV-1): 57 to 65%
- growth at 0.01 µM (DU-145 [12]): 96 to 100%
- GI50 (BT-549 [13]; read-out: GI50): 223 to 228 nM
- TGI (BT-549 [13]; read-out: TGI): 640 to 685 nM
- GI50 (COLO 205; read-out: GI50): 71.2 to 157 nM
- CC50 (COLO 205; [19]): 10000 to 40400 nM
- TGI (COLO 205; read-out: TGI): 276 to 521 nM
- growth at 0.1 µM (NCI-H23): 69 to 73%
- growth at 0.01 µM (Hs-578T): 95 to 96%
- growth at 1 µM (DU-145 [14]): 7 to 12%
- growth at 1 µM (MCF7): 1 to 4%
- growth at 0.1 µM (UACC-62): 75 to 81%
- growth at 0.1 µM (EKVX [15]): 78 to 79%
- growth at 0.1 µM (SF-268): 77 to 80%
- growth at 100 µM (ACHN [16]): 7%
- growth at 0.01 µM (BT-549 [17]): 88 to 95%
- growth at 0.1 µM (SK-MEL-28): 87 to 91%
- GI50 (SW-620; read-out: GI50): 51.3 to 98 nM
- TGI (SW-620; read-out: TGI): > 100000 nM
- CC50 (SW-620; [18]): > 100000 nM
